{"source": "patent US6231885A", "about": "“Composition for controlled and sustained transdermal administration” (Permatec Technologie AG, priority 1997, dated 2001)", "experiment": "In vitro enhancer release, paddle over disk method (apparatus 5, USP 23)", "type": "physicochemical", "conditions": "in words, in vitro and in vivo results", "description": "The release of lauric acid and oleic acid was analyzed using paddle over disk method (apparatus 5, USP 23, Drug Release 724).\nFIG. 1 schematically shown the apparatus mentioned before. In these experiments we have determined the release profiles of lauric acid and oleic acid from transdermal patches, measuring the remaining drug (by means of HPLC techniques) in samples taken at different time points.\nThe examples used were: Example 1; Example 2 and Example 3.\nThe dissolution conditions used were: paddle speed: 50 rpm; temperature: 32° C.; dissolution medium: aqueous solution of sodium dodecyl sulphate 0.3%; volume: 500 ml; sample program: 0.5; 1.0; 2.0; 4.0; 8.0 and 24 h.", "note": "Entries after “also recorded” stand apart in the source; their conditions may differ."}
{"smiles": "CCCCCCCC/C=C\\CCCCCCCC(=O)O", "note": "[oleic acid]", "values": [{"measurement": "Release from the adhesive matrix", "value": "slow release; also recorded: delivered in small amount and is prone to remain in the adhesive monolithic matrix"}]}
{"smiles": "CCCCCCCCCCCC(=O)O", "note": "[Lauric acid]", "values": [{"measurement": "Release from the adhesive matrix", "value": "rapid release"}, {"measurement": "Release from the adhesive matrix", "setting": "listed as lauric acid", "value": "a great proportion of the amount of lauric acid is delivered at early times"}]}
